Measured values from ChEMBL document CHEMBL5226297, “Small-Molecule Drug Discovery in Triple Negative Breast Cancer: Current Situation and Future Directions” (J Med Chem, 2021).
Values after ≈ are worked out from the molar mass of the structure shown. Each block holds one molecule with its values, some of them ahead of it.

What was measured:
Thioredoxin = Thioredoxin (Homo sapiens, UniProt P10599); assay: Inhibition of human TXN incubated for 30 mins by fluorescence based plate reader analysis
MDA-MB-231 [1] = assay: Anticancer activity against human MDA-MB-231 cells assessed as cell growth inhibition incubated for 4 to 10 days by MTT assay; assay type: functional, cell-based
Hs-578T [2] = assay: Anticancer activity against human Hs-578T cells assessed as cell growth inhibition incubated for 4 to 10 days by MTT assay; assay type: functional, cell-based
BT-549 [3] = assay: Anticancer activity against human BT-549 cells assessed as cell growth inhibition incubated for 4 to 10 days by MTT assay; assay type: functional, cell-based
HCC1806 [4] = assay: Anticancer activity against human HCC1806 cells assessed as cell growth inhibition incubated for 4 to 10 days by MTT assay; assay type: functional, cell-based
HCC38 [5] = assay: Anticancer activity against human HCC38 cells assessed as cell growth inhibition incubated for 4 to 10 days by MTT assay; assay type: functional, cell-based
Aurora kinase A = Aurora kinase A (Homo sapiens, UniProt O14965); assay: Inhibition of human Aurora A kinase expressed in MDA-MB-468 cells; assay type: cell-based
Aurora kinase B [6] = target: T1, Aurora kinase B (Homo sapiens, UniProt Q96GD4); assay: Inhibition of human Aurora B kinase expressed in MDA-MB-468 cells; assay type: cell-based
Aurora kinase B [7] = target: T1, Aurora kinase B; assay: Inhibition of human Aurora B kinase expressed in SUM149 cells; assay type: cell-based, SUM149PT
Aurora kinase B [8] = target: T1, Aurora kinase B; assay: Inhibition of human Aurora B kinase expressed in MDA-MB-231 cells; assay type: cell-based
[9] = target: T2, Insulin-like growth factor 1 receptor (Homo sapiens, UniProt P08069); assay: Inhibition of human IGF1R expressed in MDA-MB-468 cells; assay type: cell-based
[10] = target: T2, Insulin-like growth factor 1 receptor; assay: Inhibition of human IGF1R expressed in SUM149 cells; assay type: cell-based, SUM149PT
HCC1806 [11] = assay: Anticancer activity against human HCC1806 cells assessed as cell growth inhibition; assay type: functional
HCC70 = assay: Anticancer activity against human HCC70 cells assessed as cell growth inhibition; assay type: functional, cell-based
MDA-MB-231 [12] = assay: Anticancer activity against human MDA-MB-231 cells assessed as cell growth inhibition incubated for 72 hrs by CellTiter-Blue assay; assay type: functional, cell-based; settings: MDA-MB-231, 72 h
HCC1806 [13] = assay: Anticancer activity against human HCC1806 cells assessed as cell growth inhibition incubated for 72 hrs by CellTiter-Blue assay; assay type: functional, cell-based; settings: HCC1806, 72 h
MDA-MB-231 [14] = assay: Anticancer activity against human MDA-MB-231 cells assessed as cell growth inhibition; assay type: functional, cell-based
MDA-MB-468 = assay: Anticancer activity against human MDA-MB-468 cells assessed as cell growth inhibition; assay type: functional, cell-based
HCC1187 = assay: Anticancer activity against human HCC1187 cells assessed as cell growth inhibition; assay type: functional, cell-based
HCC1143 = assay: Anticancer activity against human HCC1143 cells assessed as cell growth inhibition; assay type: functional, cell-based
MDA-MB-231 [15] = assay: Anticancer activity against human MDA-MB-231 cells assessed as cell growth inhibition incubated for 24 hrs by CCK8 assay; assay type: functional, cell-based; settings: MDA-MB-231, 24 h
MDA-MB-436 = assay: Anticancer activity against human MDA-MB-436 cells assessed as cell growth inhibition incubated for 24 hrs by CCK8 assay; assay type: functional, cell-based; settings: MDA-MB-436, 24 h
BT-549 [16] = assay: Anticancer activity against human BT-549 cells assessed as cell growth inhibition incubated for 24 hrs by CCK8 assay; assay type: functional, cell-based; settings: BT-549, 24 h
BT-20 = assay: Anticancer activity against human BT-20 cells assessed as cell growth inhibition by MTT assay; assay type: functional, cell-based
HCC1937 = assay: Anticancer activity against human HCC1937 cells assessed as cell growth inhibition; assay type: functional, cell-based
SUM149PT = assay: Anticancer activity against human SUM149 cells assessed as cell growth inhibition; assay type: functional, cell-based
Hs-578T [17] = assay: Anticancer activity against human Hs-578T cells assessed as cell growth inhibition; assay type: functional, cell-based
MDA-MB-231 [18] = assay: Anticancer activity against human MDA-MB-231 cells assessed as cell growth inhibition incubated for 3 to 5 days by MTT assay; assay type: functional, cell-based
MCF7 = assay: Anticancer activity against human MCF7 cells assessed as cell growth inhibition; assay type: functional, cell-based
HCC38 [19] = assay: Anticancer activity against human HCC38 cells assessed as cell growth inhibition; assay type: functional, cell-based
MDA-MB-453 = assay: Anticancer activity against human MDA-MB-453 cells assessed as cell growth inhibition; assay type: functional, cell-based
Hs-578T [20] = assay: Anticancer activity against human Hs-578T cells assessed as cell growth inhibition incubated for 24 hrs by ALDEFLUOR assay; assay type: functional, cell-based
MDA-MB-231 [21] = assay: cells; settings: Homo sapiens, MDA-MB-231, 24 h

T1 sequence (Q96GD4 whole entry): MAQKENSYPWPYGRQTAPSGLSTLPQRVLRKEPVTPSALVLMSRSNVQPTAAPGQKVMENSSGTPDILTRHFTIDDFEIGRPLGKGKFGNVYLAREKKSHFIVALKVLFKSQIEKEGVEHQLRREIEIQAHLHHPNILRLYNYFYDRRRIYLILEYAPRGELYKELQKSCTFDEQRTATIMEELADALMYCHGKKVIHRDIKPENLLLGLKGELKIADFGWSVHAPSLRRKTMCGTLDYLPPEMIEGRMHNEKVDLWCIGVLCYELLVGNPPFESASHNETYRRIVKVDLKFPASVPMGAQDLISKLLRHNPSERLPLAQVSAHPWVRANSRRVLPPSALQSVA
T2 sequence (P08069 31-736 limits assumed): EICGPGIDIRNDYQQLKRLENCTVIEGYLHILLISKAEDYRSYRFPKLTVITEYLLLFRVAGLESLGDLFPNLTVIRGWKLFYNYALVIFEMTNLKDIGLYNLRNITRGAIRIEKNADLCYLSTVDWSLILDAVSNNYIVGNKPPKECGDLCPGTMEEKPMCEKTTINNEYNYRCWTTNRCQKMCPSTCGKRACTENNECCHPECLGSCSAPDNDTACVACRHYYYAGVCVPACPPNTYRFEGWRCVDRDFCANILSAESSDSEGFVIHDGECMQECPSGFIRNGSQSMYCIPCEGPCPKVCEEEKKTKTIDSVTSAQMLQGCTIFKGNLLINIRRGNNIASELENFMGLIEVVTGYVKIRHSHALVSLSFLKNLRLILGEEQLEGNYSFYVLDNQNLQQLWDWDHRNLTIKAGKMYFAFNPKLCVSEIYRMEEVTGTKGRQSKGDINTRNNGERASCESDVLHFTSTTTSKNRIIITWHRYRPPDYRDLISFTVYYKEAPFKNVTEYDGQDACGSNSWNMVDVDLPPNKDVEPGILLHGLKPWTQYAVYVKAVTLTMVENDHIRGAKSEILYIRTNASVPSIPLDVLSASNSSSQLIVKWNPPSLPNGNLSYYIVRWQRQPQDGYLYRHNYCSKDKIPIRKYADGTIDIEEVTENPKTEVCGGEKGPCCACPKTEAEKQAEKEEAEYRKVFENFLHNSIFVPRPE
T2 sequence (P08069 741-1367 limits assumed): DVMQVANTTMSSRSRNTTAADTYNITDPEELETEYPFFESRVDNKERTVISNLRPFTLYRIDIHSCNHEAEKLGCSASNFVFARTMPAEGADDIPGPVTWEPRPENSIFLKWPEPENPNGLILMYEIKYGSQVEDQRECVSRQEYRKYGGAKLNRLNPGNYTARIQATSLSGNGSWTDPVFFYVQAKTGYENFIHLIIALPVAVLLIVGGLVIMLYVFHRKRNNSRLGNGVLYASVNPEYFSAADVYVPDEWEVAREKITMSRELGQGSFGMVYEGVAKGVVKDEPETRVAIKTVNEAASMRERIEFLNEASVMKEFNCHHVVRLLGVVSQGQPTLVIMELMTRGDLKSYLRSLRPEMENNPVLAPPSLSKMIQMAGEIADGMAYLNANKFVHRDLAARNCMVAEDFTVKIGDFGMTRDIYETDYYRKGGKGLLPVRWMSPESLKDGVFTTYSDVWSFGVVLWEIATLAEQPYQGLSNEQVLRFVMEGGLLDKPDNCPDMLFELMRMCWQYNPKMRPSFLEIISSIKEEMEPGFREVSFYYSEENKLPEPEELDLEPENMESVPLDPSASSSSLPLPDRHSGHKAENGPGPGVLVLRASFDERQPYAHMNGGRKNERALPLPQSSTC
Sequence of Aurora kinase A (O14965 whole entry): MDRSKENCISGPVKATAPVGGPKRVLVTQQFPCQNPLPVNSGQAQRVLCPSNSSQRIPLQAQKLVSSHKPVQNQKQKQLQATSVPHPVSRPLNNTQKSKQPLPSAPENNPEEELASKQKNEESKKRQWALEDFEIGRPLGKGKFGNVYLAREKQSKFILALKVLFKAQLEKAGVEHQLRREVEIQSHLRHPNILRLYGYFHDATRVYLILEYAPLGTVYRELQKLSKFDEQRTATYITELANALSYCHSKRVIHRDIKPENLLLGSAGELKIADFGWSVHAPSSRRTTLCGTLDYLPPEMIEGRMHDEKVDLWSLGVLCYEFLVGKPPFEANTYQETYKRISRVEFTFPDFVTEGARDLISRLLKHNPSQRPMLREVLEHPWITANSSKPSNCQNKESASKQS
Sequence of Thioredoxin (P10599 whole entry): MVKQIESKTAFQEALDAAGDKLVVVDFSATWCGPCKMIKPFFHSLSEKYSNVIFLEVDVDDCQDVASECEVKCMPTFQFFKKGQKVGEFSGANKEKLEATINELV

IC50 (Thioredoxin): 10000 nM
SMILES: Fc1ccc(-c2ccc(Nc3nc(Cl)nc(Cl)n3)cc2)cc1

IC50 (MDA-MB-231 [1]): 10.3 nM
IC50 (BT-549 [3]): 6.8 nM
IC50 (HCC1806 [4]): 19 nM
IC50 (HCC38 [5]): 15 nM
SMILES: Cc1sc2c(c1C)C(c1ccc(Cl)cc1)=N[C@@H](CC(=O)NCCCCCCCCCCNC(=O)C[C@@H]1N=C(c3ccc(Cl)cc3)c3c(sc(C)c3C)-n3c(C)nnc31)c1nnc(C)n1-2
IC50 (Hs-578T [2]): 4.1 nM

IC50 (Aurora kinase A): 215 nM
IC50 (Aurora kinase B [6]): 478 nM
IC50 (Aurora kinase B [7]): 272 nM
IC50 (Aurora kinase B [8]): 66 nM
IC50 [9]: < 2 nM
IC50 [10]: < 2 nM
SMILES: Cc1ccsc1C(=O)Nc1cc(CN2CCN(C(=O)CO)CC2)ccc1/C=C/c1n[nH]c2ccccc12 [KW-2450]

SMILES: Nc1ccc(-c2ccc3ncc4ccc(=O)n(-c5cccc(C(F)(F)F)c5)c4c3c2)cn1
GR50 (HCC1806 [11]): 0.01 µM
GR50 (HCC70): 0.01 µM

IC50 (MDA-MB-231 [12]): 50 nM
IC50 (HCC1806 [13]): 100 nM
SMILES: O=C(Cc1cccc(OC(F)(F)F)c1)Nc1ccc(CCCCc2nnc(NC(=O)Cc3ccccn3)s2)nn1

IC50 (MDA-MB-231 [14]): 1000 nM
IC50 (MDA-MB-468): 1000 nM
IC50 (HCC1187): 1000 nM
IC50 (HCC1143): 5000 nM
SMILES: N#CCNC(=O)c1ccc(-c2ccnc(Nc3ccc(N4CCOCC4)cc3)n2)cc1 [MOMELOTINIB]
IC50 (HCC70; Homo sapiens, HCC70): 10000 nM

SMILES: O=C1OC(=O)C2C3CCC(O3)C12 (configuration not stated)
IC50 (MDA-MB-231 [15]): 21.8 µg/mL (≈ 130 µM)
IC50 (MDA-MB-436): 17.7 µg/mL (≈ 105 µM)
IC50 (BT-549 [16]): 12.8 µg/mL (≈ 76.3 µM)

IC50 (BT-20): 6200 nM
SMILES: CN(c1ccccc1CNc1nc(Nc2ccc3c(c2)CC(=O)N3)ncc1C(F)(F)F)S(C)(=O)=O

IC50 (MDA-MB-231 [14]): 6.1 nM
IC50 (HCC1937): 120 nM
SMILES: Cc1nc(Nc2ncc(C(=O)Nc3cc(NC(=O)c4cccc(C(F)(F)F)c4)ccc3C)s2)cc(N2CCN(CCO)CC2)n1
IC50 (SUM149PT): 230 nM
IC50 (Hs-578T [17]): 9.1 nM

IC50 (MDA-MB-231 [18]): 1000 nM
SMILES: CCOC(=O)c1cnn(-c2ccc(NC(=O)C(Cl)=C(Cl)Cl)cc2)c1C(F)(F)F

EC50 (MDA-MB-468): 2500 nM
EC50 (MCF7): 770 nM
EC50 (HCC1937): 440 nM
EC50 (HCC38 [19]): 1200 nM
EC50 (MDA-MB-453): 2510 nM
SMILES: CCN(CC)c1ccc(CNc2ccc(Cl)cc2)cc1

IC50 (MDA-MB-231 [21]): 1000 nM
SMILES: Nc1ccccc1NC(=O)c1ccc(CNC(=O)OCc2cccnc2)cc1 [ENTINOSTAT]
IC50 (Hs-578T [20]): 1000 nM
